The record followed here is US20100298213A1, “Pharmaceutically Active Insulin Receptor-Modulating Molecules” (Novo Nordisk A/S, priority 2004, published 2010).

Square brackets hold non-standard residues; d marks the D form. Ends that are not written are not given here. Dip = N[C@H](C(=O)O)C(c1ccccc1)c1ccccc1; Aib = CC(C)(N)C(=O)O

Series [1] addresses RIR +11 (rat insulin receptor, B isoform) (Rattus norvegicus, UniProt P15127). Description: Binding of IM peptides to IR isoform RIR +11. The conditions noted are these: +11 (B) isoform. An excerpt:
(§1) A number of IRBPs (S519; S557; S597; S636; S667; S733; S671; S660; S696; S574; S700; S626; and S726), some of which described in the prior patent documents, were applied to A and B isoforms (−11 and +11 isoforms) of the human, rat, and pig insulin receptors (HIR, RIR, and PIR) using standard methods.

Series [2] deals with HIR +11 (human insulin receptor, B isoform) (Homo sapiens, UniProt P06213). Description: Binding of IM peptides to IR isoform HIR +11. The conditions noted are these: +11 (B) isoform.
Excerpt: as §1

The test system of a further series is mouse adipocytes. Description: Glucose uptake in mouse adipocytes (FFC). The class given is cell-based. The conditions noted are these: for EC50 (FFC) rel. to HI: EC50 value expressed relative to that of human insulin in the same assay; for EC50: concentration needed for half maximal uptake of glucose in mouse adipocytes.
The subject of series [3] is pepsin, elastase, chymotrypsin, trypsin, and carboxy-peptidase A. Description: Digestion with digestive enzymes (enzymatic stability). The class given is in vitro ADME. From the text: A novel IRBP was derived from S597 by introducing the unusual amino acid residues aminoisobutyric acid and diphenylalanine into the Xaa7 position of the N-terminal Formula 6-like IRBAAS sequence of S597 (in place of Ala) and into the Xaa1 position of the C-terminal Formula 1 sequence (in place of Phe).

A further series addresses human IR (HIR) (Homo sapiens, UniProt P06213). Description: Human IR affinity (Kd). Conditions: Kd value expressed relative to that of human insulin in the same assay. The class given is binding.
Series [4] addresses RIR −11 (rat insulin receptor, A isoform) (Rattus norvegicus, UniProt P15127). Put plainly: Binding of IM peptides to IR isoform RIR −11. The conditions noted are these: −11 (A) isoform.
Excerpt: as §1

The subject of series [5] is PIR −11 (pig insulin receptor, A isoform). Description: Binding of IM peptides to IR isoform PIR −11. The conditions noted are these: −11 (A) isoform.
Excerpt: as §1

The target of series [6] is HIR −11 (human insulin receptor, A isoform) (Homo sapiens, UniProt P06213). Description: Binding of IM peptides to IR isoform HIR −11. Conditions: −11 (A) isoform.
Excerpt: as §1

The test system of series [7] is PIR +11 (pig insulin receptor, B isoform). Put plainly: Binding of IM peptides to IR isoform PIR +11. The conditions noted are these: +11 (B) isoform.
Excerpt: as §1

A further series relates to wistar rats. Put plainly: Blood glucose after administration to wistar rats. Type of series: in vivo, rat. The procedure:
IRBP S667 was and human insulin were administered to wistar rats (S667 at 1.25 nmol/kg; 2.5 nmol/kg; and 5 nmol/kg; human insulin (HI) at 1.25 nmol/kg) using standard techniques, such as are described in the prior patent documents. Glucose measurements were taken 20 minutes prior to administration, at administration, and 20; 40; 60; 80; 120; and 180 minutes after administration. These measurements are compared in FIG. 3.

Series [8] concerns the target human insulin receptor isoform with exon 11 (human) (UniProt P06213). Put plainly: receptor binding, standard methods (FIG. 2).
In series [9] the target is rat insulin receptor isoform with exon 11 (rat) (UniProt P15127). Description: receptor binding, standard methods (FIG. 2).
Series [10] concerns the target T1, rat insulin receptor isoform without exon 11 (rat, UniProt P15127-2 27-1371, limits assumed).
T1 construct: also called RIR-11; RIR - 11
Put plainly: receptor binding, standard methods (FIG. 2).
Excerpt: as §1

In series [11] the target is T2, pig insulin receptor isoform with exon 11 (pig, UniProt F1SCL0 28-758; F1SCL0 763-1382).
T2 construct: also called PIR+11; PIR + 11
Put plainly: receptor binding, standard methods (FIG. 2).
Excerpt: as §1

Series [12] has as its target T3, human insulin receptor isoform without exon 11 (human, UniProt P06213-2 28-1370, limits assumed).
T3 construct: also called HIR-11; HIR - 11
Description: receptor binding, standard methods (FIG. 2).
Excerpt: as §1

Series [13] deals with T4, pig insulin receptor isoform without exon 11 (pig, UniProt F1SCK8 28-746; F1SCK8 751-1370).
T4 construct: also called PIR-11; PIR - 11
Description: receptor binding, standard methods (FIG. 2).
Excerpt: as §1

Series [14] deals with insulin receptor on mouse adipocytes (mouse, UniProt P15208 28-1372). Description: cell-based or functional assay.
insulin receptor on mouse adipocytes, sequence (P15208 28-1372): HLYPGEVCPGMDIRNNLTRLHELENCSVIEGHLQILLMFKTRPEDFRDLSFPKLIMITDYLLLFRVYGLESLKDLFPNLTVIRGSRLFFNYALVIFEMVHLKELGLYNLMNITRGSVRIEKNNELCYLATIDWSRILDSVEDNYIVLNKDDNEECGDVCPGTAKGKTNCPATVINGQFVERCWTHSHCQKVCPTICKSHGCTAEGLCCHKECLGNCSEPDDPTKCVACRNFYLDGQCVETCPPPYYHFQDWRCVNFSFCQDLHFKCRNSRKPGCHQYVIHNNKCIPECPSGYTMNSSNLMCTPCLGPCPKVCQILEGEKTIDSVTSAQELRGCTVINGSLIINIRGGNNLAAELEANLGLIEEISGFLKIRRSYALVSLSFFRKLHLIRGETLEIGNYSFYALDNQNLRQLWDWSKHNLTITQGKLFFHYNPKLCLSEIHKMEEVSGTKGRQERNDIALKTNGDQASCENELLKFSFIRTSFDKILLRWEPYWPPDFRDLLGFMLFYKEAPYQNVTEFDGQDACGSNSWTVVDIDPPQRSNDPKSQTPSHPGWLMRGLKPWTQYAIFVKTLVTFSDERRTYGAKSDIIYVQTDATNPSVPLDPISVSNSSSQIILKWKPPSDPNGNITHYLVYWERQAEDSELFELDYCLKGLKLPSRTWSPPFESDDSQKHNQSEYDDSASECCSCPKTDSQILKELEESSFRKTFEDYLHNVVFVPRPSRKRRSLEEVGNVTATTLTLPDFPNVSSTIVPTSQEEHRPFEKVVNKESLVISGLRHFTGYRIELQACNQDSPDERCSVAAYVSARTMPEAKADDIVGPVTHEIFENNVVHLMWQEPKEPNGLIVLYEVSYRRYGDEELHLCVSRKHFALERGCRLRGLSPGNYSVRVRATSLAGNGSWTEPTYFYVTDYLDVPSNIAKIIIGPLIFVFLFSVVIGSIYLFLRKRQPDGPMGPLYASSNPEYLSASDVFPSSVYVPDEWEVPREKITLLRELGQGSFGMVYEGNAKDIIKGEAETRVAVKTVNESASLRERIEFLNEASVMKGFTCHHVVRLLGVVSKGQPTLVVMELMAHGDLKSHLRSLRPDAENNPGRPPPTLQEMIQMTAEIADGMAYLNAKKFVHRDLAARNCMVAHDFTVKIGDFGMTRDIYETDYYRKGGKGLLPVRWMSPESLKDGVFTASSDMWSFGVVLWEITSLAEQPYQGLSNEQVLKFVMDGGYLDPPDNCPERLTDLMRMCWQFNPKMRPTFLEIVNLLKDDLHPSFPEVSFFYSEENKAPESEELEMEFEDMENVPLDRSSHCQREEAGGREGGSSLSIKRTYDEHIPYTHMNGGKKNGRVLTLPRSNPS

RIR +11 (rat insulin receptor, B isoform), sequence (P15127 27-759 limits assumed): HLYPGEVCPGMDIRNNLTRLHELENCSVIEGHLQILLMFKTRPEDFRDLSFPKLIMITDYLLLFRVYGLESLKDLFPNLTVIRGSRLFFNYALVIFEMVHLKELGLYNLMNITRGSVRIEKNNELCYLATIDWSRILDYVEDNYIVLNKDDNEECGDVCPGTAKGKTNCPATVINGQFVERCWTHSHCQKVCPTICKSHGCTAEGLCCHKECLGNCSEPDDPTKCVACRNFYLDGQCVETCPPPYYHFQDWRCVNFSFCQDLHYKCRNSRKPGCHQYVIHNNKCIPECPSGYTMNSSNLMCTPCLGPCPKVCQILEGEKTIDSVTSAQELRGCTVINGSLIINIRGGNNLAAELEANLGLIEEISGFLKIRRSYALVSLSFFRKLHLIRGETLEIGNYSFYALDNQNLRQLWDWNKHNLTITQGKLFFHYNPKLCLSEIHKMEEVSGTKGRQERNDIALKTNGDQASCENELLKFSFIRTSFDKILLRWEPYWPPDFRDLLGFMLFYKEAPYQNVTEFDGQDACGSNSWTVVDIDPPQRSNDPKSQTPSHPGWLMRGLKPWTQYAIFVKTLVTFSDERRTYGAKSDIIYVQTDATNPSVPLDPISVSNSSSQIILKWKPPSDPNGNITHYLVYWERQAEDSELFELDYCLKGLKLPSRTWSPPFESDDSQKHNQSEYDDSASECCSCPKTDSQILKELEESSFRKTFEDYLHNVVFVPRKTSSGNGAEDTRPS
RIR +11 (rat insulin receptor, B isoform), sequence (P15127 764-1383 partner limits assumed): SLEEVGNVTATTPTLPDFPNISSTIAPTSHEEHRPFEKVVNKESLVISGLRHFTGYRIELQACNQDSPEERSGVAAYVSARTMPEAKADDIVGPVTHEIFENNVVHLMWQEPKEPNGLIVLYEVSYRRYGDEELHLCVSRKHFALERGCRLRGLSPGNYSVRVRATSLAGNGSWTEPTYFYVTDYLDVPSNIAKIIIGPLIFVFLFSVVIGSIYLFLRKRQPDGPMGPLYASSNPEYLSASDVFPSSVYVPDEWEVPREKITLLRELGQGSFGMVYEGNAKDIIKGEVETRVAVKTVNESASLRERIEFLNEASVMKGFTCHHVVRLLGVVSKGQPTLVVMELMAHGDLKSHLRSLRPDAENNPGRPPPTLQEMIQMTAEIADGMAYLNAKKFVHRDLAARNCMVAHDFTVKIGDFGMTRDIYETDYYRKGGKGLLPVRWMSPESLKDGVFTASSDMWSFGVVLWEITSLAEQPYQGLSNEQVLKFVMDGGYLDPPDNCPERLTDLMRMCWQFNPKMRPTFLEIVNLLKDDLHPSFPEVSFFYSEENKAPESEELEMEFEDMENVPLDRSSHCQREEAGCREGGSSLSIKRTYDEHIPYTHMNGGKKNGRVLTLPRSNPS
T4 sequence (alpha, as listed by the source limits assumed, stated change not applied, form in doubt, chain 1 of 2): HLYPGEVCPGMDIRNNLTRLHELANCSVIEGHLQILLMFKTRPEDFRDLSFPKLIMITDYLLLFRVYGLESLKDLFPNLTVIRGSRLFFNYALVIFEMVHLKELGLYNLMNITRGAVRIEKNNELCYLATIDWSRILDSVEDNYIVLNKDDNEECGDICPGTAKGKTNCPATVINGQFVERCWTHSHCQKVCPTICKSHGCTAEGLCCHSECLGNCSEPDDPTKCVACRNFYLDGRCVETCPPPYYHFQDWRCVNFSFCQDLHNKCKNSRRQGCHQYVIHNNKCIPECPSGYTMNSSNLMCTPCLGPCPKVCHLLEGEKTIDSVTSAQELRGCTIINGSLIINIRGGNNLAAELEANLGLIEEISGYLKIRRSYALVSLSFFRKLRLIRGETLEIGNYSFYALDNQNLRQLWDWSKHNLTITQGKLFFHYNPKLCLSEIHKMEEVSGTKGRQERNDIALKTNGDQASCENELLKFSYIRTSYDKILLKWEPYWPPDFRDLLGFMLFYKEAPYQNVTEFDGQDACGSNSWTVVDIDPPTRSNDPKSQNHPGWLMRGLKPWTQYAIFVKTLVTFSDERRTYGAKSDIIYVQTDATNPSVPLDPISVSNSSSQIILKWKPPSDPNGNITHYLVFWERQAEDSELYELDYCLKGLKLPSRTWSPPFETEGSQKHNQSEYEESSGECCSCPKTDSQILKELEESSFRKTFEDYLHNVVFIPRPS
T4 sequence (beta, as listed by the source limits assumed, stated change not applied, form in doubt, chain 2 of 2): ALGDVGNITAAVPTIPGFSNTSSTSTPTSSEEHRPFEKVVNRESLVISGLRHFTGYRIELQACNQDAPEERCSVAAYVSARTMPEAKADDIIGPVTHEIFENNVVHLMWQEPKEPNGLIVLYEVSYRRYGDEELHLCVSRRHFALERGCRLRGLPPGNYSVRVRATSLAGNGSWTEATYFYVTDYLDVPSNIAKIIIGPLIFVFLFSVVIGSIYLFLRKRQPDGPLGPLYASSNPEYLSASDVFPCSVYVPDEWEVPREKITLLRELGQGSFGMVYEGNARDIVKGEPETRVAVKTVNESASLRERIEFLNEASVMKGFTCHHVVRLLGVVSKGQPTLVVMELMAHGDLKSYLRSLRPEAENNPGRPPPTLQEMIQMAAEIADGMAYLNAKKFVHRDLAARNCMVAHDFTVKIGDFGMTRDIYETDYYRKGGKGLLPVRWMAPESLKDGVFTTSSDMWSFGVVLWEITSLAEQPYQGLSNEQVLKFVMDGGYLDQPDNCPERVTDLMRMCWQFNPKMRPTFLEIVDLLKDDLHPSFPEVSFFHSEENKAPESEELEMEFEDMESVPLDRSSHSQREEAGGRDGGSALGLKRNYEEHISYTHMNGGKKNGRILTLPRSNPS
T2 sequence (alpha, as listed by the source limits assumed, stated change not applied, form in doubt, chain 1 of 2): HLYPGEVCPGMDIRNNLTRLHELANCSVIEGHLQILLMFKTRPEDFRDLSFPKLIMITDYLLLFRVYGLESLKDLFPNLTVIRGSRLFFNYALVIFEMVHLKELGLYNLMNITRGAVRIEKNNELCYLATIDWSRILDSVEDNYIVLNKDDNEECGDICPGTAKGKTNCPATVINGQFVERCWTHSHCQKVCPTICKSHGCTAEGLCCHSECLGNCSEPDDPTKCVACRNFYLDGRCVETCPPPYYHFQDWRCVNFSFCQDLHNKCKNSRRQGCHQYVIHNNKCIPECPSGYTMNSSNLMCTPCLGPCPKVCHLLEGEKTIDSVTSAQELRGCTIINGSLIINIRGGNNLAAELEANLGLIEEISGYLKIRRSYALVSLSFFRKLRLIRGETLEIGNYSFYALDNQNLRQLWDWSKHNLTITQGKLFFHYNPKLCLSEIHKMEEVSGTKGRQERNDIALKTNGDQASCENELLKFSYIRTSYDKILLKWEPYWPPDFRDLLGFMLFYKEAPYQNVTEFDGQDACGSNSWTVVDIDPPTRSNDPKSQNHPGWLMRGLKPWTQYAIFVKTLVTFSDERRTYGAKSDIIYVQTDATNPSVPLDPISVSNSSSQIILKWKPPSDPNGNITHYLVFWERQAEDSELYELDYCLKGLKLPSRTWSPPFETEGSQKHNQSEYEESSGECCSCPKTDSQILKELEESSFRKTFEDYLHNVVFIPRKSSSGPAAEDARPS
T2 sequence (beta, as listed by the source limits assumed, stated change not applied, form in doubt, chain 2 of 2): as the sequence (beta, as listed by the source limits assumed, stated change not applied, form in doubt, chain 2 of 2) above

Take “SLEEEWAQIQCEVWGRGCPSESFYGWFERQLG [compound 733]”: the “relative affinity RIR +11” value in [1] amounted to 211. Besides, the “relative affinity HIR +11” value in [2] was determined as 290.
Taken in the same sequence, the figures for “SLEEEWAQIQCEVWGRGCPSESFYDWFERQL [compound 636]” were 79 and 117.
“GSLDESFYDWFERQLG-(pox)2-SLEEEWAQIQCEVWGRGCPSY [compound 675]”: in the series on mouse adipocytes, the “EC50 (FFC) rel. to HI” value is 25% and the EC50 (as a rule, the concentration needed to bring the measured effect to its halfway point) was 0.26 nM.
For “SLEEEWAQIECEVYGRGCPSVRGFQGGTVWPGYEWLRNAAKK [compound 626]”, the “relative affinity RIR +11” value in series [1] was determined as 12. In addition, the “relative affinity HIR +11” value in [2] came out at 78.
As to “Ac-SLEEEW-Aib-QIQCEVWGRPCPSEP-Dip-YGWFHEQLGPP (Ac-SLEEEW[Aib]QIQCEVWGRPCPSEP[Dip]YGWFHEQLGPP; cysteine pairing not given here) [compound 873]”, in series [3], the “stabilization towards all of the relevant enzymes as compared to S597” value was “greater than 100 fold”. The “Kd (HIR) rel. to HI” value with human IR (HIR) was found to be 20%.
Consider “SLEEEWAQVECEVYERGCPSESFYDWFERQL [compound 696]”, for which the “relative affinity RIR +11” value in series [1] was found to be 0.2. For the same molecule, in [2], the “relative affinity HIR +11” value is listed as 3.1.
As for “SLEEEWAQIQEEVWGRGEPSESFYDWFERQL [compound 700]”, the “relative affinity RIR −11” value in series [4] is listed as 10. For the same molecule, in series [5], the “relative affinity PIR −11” value worked out at 1.4. Besides, the “relative affinity RIR +11” value in series [1] came to 13. Besides, the “relative affinity HIR +11” value in [2] is on record as 53. In [6], the “relative affinity HIR −11” value is given as 70. Further, the “relative affinity PIR +11” value in series [7] is 4.3.
Consider “Ac-SLE-Aib-EW-Aib-QIQCEVWGRGCPSESFYDWFERQL [compound 663]”, for which, in the series with mouse adipocytes, the “EC50 (FFC) rel. to HI” value stood at 15% and the midpoint of the response, the EC50, lay at 0.43 nM.
For “SLEEEWAQIECEVWGRGCPSEGFYNAIELLS [compound 726]”, in series [1], the “relative affinity RIR +11” value is given as 7.7. In addition, the “relative affinity HIR +11” value in series [2] was found to be 121.
Taken in the same sequence, the figures for SLEEEWAQIEAEVWGRGAPSESFYDWFERQLG [S574] were 2 and 8.2.
As to “SLEEEWAQIQCEVWGRGCPSESFYGWFERQL [compound 667]”, in series [1], the “relative affinity RIR +11” value is 112. Further, the “relative affinity HIR +11” value in series [2] came out at 127. The “dose dependence of glucose level modulation” value in the series on wistar rats (1.25, 2.5, 5 nmol/kg) is recorded as “dose-dependent IR-mediated glucose level modulation”. Besides, the “blood glucose lowering compared with human insulin” value with wistar rats (S667 1.25, 2.5, 5 nmol/kg, HI 1.25 nmol/kg, up to 180 minutes) is “lower blood glucose to levels similar to human insulin at similar dosages”.
In the case of SLEEEWAQIECEVYGRGCPSVRGFQGGTVWPGYEWLRNAAKK [S626], the relative affinity in series [8] amounted to 78; in [9], 12; in series [10] it was 11; in series [11] it was 3; in [12], 59; in series [13] it was 1. Moreover, in series [14], the “EC50 (FFC)” value came out at 9.7 nM. Moreover, in series [14], the “EC50 (FFC) rel. to HI” value stood at 0.4%.
Consider Ac-SLEEEWAQIECEVWGRGCPSEGFYNAIELLS (cysteine pairing not given here) [S726], for which the relative affinity in series [8] turned out to be 121; in series [9], 7.7; in [10] it was 13; in series [11], 5.9; in series [12] it was 83; in [13], 1.3. Besides, the “EC50 (FFC)” value in series [14] is 19 nM. Also, in [14], the “EC50 (FFC) rel. to HI” value stood at 0.3%.
